The source of these data is patent US20210238225A1, “PEPTIDOMIMETIC INHIBITORS OF THE PEPTIDYL-PROLYL CIS/TRANS ISOMERASE (PIN1)” (DANA-FARBER CANCER INSTITUTE, INC., priority 2018, published 2021).

One experiment has as its target Pin1 (GST-Pin1) (Homo sapiens, UniProt Q13526). As to the kind of experiment: Fluorescence polarization (FP) assay, binding to Pin1. (Polarisation of emitted light reports the rotation of a fluorescent probe.)
The next experiment deals with Pin1 (Homo sapiens, UniProt Q13526). Kind of experiment: Lysate target engagement (pull down with biotinylated probes; competition assay). It is filed as binding. On the set-up: endogenous in cells; host or cells: MDA-MB-231. Particulars: for Lysate Target Engagement?: TNBC-MDA-MB-231 lysate, biotin/dtb probes: pull down, others: competition, concentration under E5; for Lysate Target Engagement? concentration stated for the engagement or pull down: read with the E4 line of the same compound (complete, partial, probe pull down); for pull down of Pin1 from lysate (FIG. 5A): 1 μM. The method, then:
(§1) TNBC-MDA-MB-231 cells were lysed in lysis buffer (50 mM Hepes pH 7.5, 150 mM NaCl, 1 mM ethylenediaminetetraacetic acid (EDTA), 10% v/v glycerol, 0.5% v/v NP-40, protease inhibitors (Roche)). After clarifying by centrifugation (14,000 rpm for 15 min at 4° C.), lysates were incubated with the indicated concentrations of candidate compound for 1 hour at 4° C. (500 μg of protein per sample, as determined by BCA). Lysates were then incubated with streptavidin agarose resin (30 μL of 1:1 beads: lysis buffer slurry) (Thermo Scientific™, cat. #20349) for 2 hours at 4° C. Beads were washed 4 times with 500 μL of washing buffer (50 mM Hepes, pH 7.5, 10 mM NaCl, 1 mM EDTA, 10% glycerol), then pelleted by centrifugation and dried. The beads were then boiled at 95° C. for 5 minutes in 30 μL of 2× LDS+10% β-mercaptoethanol. Lysates were probed for specified proteins by western blotting using the Bolt system (Life Technologies™).
as §1, with “mM EDTA,” for “mM ethylenediaminetetraacetic acid (EDTA),”, “by centrifugation,” for “by centrifugation (14,000 rpm for 15 min at 4° C.),”, “were pre-incubated” for “were incubated”, “of” for “of candidate”, “compound 18 overnight” for “compound for 1 hour”, “BCA). The lysates were then incubated with 1 μM of compound 2c (desthiobiotin probe) for 1 hour at 4° C.” for “BCA).”

Setting [1] is: competition with fluorescein-labeled peptide probe, 12 hours pre-incubation at 4° C., Kenakin Ki equation, read-out: Ki, μM (FP Assay).
Setting [2] is: Ki, μM (FP Assay), competition with fluorescein-labeled peptide probe, 12 hours pre-incubation at 4° C., Kenakin Ki equation.

Entries after “also recorded” stand apart in the source; their conditions may differ. Where two headings read alike, the source gives them in different places. Non-standard residues stand in square brackets, D forms with d. Residues, ends and D or L forms follow the SMILES beside them. *: point of attachment. Biotinyl(3aR,4R,6aS) = O=C1N[C@@H]2[C@@H](CS[C@@H]2CCCCC(=O)*)N1; Phe(4-F) = N[C@@H](Cc1ccc(F)cc1)C(=O)O; NH(4-Me-benzyl) = Cc1ccc(CN*)cc1; NMeF = CN[C@@H](Cc1ccccc1)C(=O)O; hPhe = N[C@@H](CCc1ccccc1)C(=O)O; Cit = NC(=O)NCCC[C@H](N)C(=O)O; Pip = O=C(O)[C@@H]1CCCCN1; Piperidide = C1CCN(*)CC1; Fluoroacetyl = O=C(CF)*; X3 = C=CS(=O)(=O)*; ClAc = O=C(CCl)*; X1 = O=C(C1CO1)*

What is called Ki is the equilibrium dissociation constant of an inhibitor or competing ligand from its target.

Sequence of Pin1 (GST-Pin1) (Q13526 whole entry): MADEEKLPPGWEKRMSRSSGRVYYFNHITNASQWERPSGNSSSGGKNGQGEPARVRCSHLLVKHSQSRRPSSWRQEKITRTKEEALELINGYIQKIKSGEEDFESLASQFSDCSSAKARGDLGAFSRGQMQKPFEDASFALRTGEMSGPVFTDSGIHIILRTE
Sequence of Pin1 (Q13526 whole entry): as above

Regarding `COC(=O)CC[C@H](NC(=O)CCl)C(=O)N1CCCC[C@H]1C(=O)N[C@@H](Cc1c[nH]c2ccccc12)C(=O)N[C@@H](Cc1ccc(O)cc1)C(N)=O` [Compound 2-22, Methyl (S)-5-((S)-2-(((S)-1-(((S)-1-Amino-3-(4-hydroxyphenyl)-1-oxopropan-2-yl)amino)-3-(1H-indol-3-yl)-1-oxopropan-2-yl)carbamoyl)piperidin-1-yl)-4-(2-chloroacetamido)-5-oxopentanoate] (ClAc-E(OMe)[Pip]WY-NH2), the Ki on Pin1 (GST-Pin1) (setting [1]) was 0.154 µM. For the same compound, on Pin1, the “Lysate Target Engagement?” value is “Yes-partial” and the “Lysate Target Engagement? concentration stated for the engagement or pull down” value is given as “at 10 μM”. For `C[C@H](NC(=O)[C@H](C)NC(=O)[C@H](CCCNC(N)=O)NC(=O)[C@H](Cc1c[nH]c2ccccc12)NC(=O)[C@@H]1CCCCN1C(=O)[C@H](CCC(=O)O)NC(=O)CCl)C(=O)N[C@@H](CCCCNC(=O)CCCC[C@H]1SC[C@H]2NC(=O)N[C@H]21)C(N)=O` [Compound 2-25, (S)-5-((S)-2-(((2S,5S,8S,11S)-14-Carbamoyl-1-(1H-indol-3-yl)-8,11-dimethyl-3,6,9,12,20-pentaoxo-24-((3aR,4R,6aS)-2-oxohexahydro-1H-thieno[3,4-d]imidazol-4-yl)-5-(3-ureidopropyl)-4,7,10,13,19-pentaazatetracosan-2-yl)carbamoyl)piperidin-1-yl)-4-(2-chloroacetamido)-5-oxopentanoic acid] (ClAc-E[Pip]W[Cit]AAK(Biotinyl(3aR,4R,6aS))-NH2), the inhibition constant (Ki) at Pin1 (GST-Pin1) (read-out: Ki quoted in figure legend, assay not named) worked out at 0.02 µM. For the same compound, the “pull down of Pin1 from lysate (FIG. 5A)” value on Pin1 (TNBC MDA-MB-231 lysate) is reported as “able to pull down Pin1; also recorded: pulled down Pin1”. Moreover, on Pin1, the “Lysate Target Engagement?” value is listed as “Yes-(Biotin” and the “Lysate Target Engagement? concentration stated for the engagement or pull down” value is recorded as “at 1 μM”. For `C[C@H](NC(=O)[C@H](C)NC(=O)[C@H](CCCNC(N)=O)NC(=O)[C@H](Cc1c[nH]c2ccccc12)NC(=O)[C@@H]1CCCCN1C(=O)[C@@H](CCC(=O)O)NC(=O)CCl)C(=O)N[C@@H](CCCCNC(=O)CCCC[C@H]1SC[C@H]2NC(=O)N[C@H]21)C(N)=O` [Compound 2-30, (R)-5-((S)-2-(((2S,5S,8S,11S)-14-Carbamoyl-1-(1H-indol-3-yl)-8,11-dimethyl-3,6,9,12,20-pentaoxo-24-((3aR,4R,6aS)-2-oxohexahydro-1H-thieno[3,4-d]imidazol-4-yl)-5-(3-ureidopropyl)-4,7,10,13,19-pentaazatetracosan-2-yl)carbamoyl)piperidin-1-yl)-4-(2-chloroacetamido)-5-oxopentanoic acid] (ClAc-[dE][Pip]W[Cit]AAK(Biotinyl(3aR,4R,6aS))-NH2), the Ki on Pin1 (GST-Pin1) (setting [1]) came out at 1.6 µM. For the same compound, on Pin1 (TNBC MDA-MB-231 lysate), the “pull down of Pin1 from lysate (FIG. 5A)” value was “unable to pull down Pin1; also recorded: did not”. Regarding `CN(C(=O)CCl)[C@@H](Cc1ccccc1)C(=O)N1CCCC[C@H]1C(=O)N[C@@H](Cc1c[nH]c2ccccc12)C(=O)N[C@@H](CCCNC(N)=O)C(=O)N[C@@H](CCCCNC(=O)CCCC[C@H]1SC[C@H]2NC(=O)N[C@H]21)C(N)=O` [Compound 2-32, (S)—N—((S)-1-(((S)-1-(((S)-1-Amino-1-oxo-6-(5-((3aR,4R,6aS)-2-oxohexahydro-1H-thieno[3,4-d]imidazol-4-yl)pentanamido)hexan-2-yl)amino)-1-oxo-5-ureidopentan-2-yl)amino)-3-(1H-indol-3-yl)-1-oxopropan-2-yl)-1-(N-(2-chloroacetyl)-N-methyl-L-phenylalanyl)piperidine-2-carboxamide] (ClAc-[NMeF][Pip]W[Cit]K(Biotinyl(3aR,4R,6aS))-NH2), the Ki stood at 0.018 µM at Pin1 (GST-Pin1) (Ki quoted in figure legend, assay not named) and 0.018 µM at Pin1 (GST-Pin1) (setting [2]). The “pull down of Pin1 from lysate (FIG. 5B)” value at Pin1 (TNBC MDA-MB-231 lysate, 500 nM and 1 μM) is given as “able to pull down Pin1; also recorded: pulled down Pin1”. The “Lysate Target Engagement?” value at Pin1 is given as “Yes-(Biotin”. Also, at Pin1, the “Lysate Target Engagement? concentration stated for the engagement or pull down” value is given as “at 0.5 μM”. As to `CN(C(=O)CCl)[C@@H](Cc1ccccc1)C(=O)N1CCCC[C@H]1C(=O)N[C@@H](Cc1c[nH]c2ccccc12)C(=O)N[C@@H](Cc1ccc(F)cc1)C(=O)N1CCCCC1` [Compound 11-43, (S)-1-(N-(2-Chloroacetyl)-N-methyl-L-phenylalanyl)-N—((S)-1-(((S)-3-(4-fluorophenyl)-1-oxo-1-(piperidin-1-yl)propan-2-yl)amino)-3-(1H-indol-3-yl)-1-oxopropan-2-yl)piperidine-2-carboxamide] (ClAc-[NMeF][Pip]W[Phe(4-F)]-Piperidide), the Ki at Pin1 (GST-Pin1) (setting [1]) was found to be 0.172 µM.

Consider `CN(C(=O)CCl)[C@@H](Cc1ccccc1)C(=O)N1CCCC[C@H]1C(=O)N[C@@H](Cc1c[nH]c2ccccc12)C(=O)N[C@@H](CCc1ccccc1)C(=O)N1CCCCC1` [Compound 11-44, (S)—N—((S)-3-(1H-Indol-3-yl)-1-oxo-1-(((S)-1-oxo-4-phenyl-1-(piperidin-1-yl)butan-2-yl)amino)propan-2-yl)-1-(N-(2-chloroacetyl)-N-methyl-L-phenylalanyl)piperidine-2-carboxamide] (ClAc-[NMeF][Pip]W[hPhe]-Piperidide), for which, at Pin1 (GST-Pin1) (setting [1]), the Ki turned out to be 1.5 µM. On to `CN(C(=O)CCl)[C@@H](Cc1ccccc1)C(=O)N1CCCC[C@H]1C(=O)N[C@@H](Cc1c[nH]c2ccccc12)C(=O)N1CCCCC1` [Compound 11-45, (S)—N—((S)-3-(1H-indol-3-yl)-1-oxo-1-(piperidin-1-yl)propan-2-yl)-1-(N-(2-chloroacetyl)-N-methyl-L-phenylalanyl)piperidine-2-carboxamide] (ClAc-[NMeF]-[Pip]-Trp-Piperidide), for which the inhibition constant (Ki) at Pin1 (GST-Pin1) (setting [1]) was over 1 µM. As for `Cc1ccc(CNC(=O)[C@H](CCCNC(N)=O)NC(=O)[C@H](Cc2c[nH]c3ccccc23)NC(=O)[C@@H]2CCCCN2C(=O)[C@H](Cc2ccccc2)NCC#N)cc1` [Compound 12, (S)—N—((S)-3-(1H-indol-3-yl)-1-(((S)-1-((4-methylbenzyl)amino)-1-oxo-5-ureidopentan-2-yl)amino)-1-oxopropan-2-yl)-1-((cyanomethyl)-L-phenylalanyl)piperidine-2-carboxamide], the Ki on Pin1 (GST-Pin1) (setting [1]) was over 10 µM. On the same count and under the same terms, the same measure for `Cc1ccc(CNC(=O)[C@H](CCCNC(N)=O)NC(=O)[C@H](Cc2c[nH]c3ccccc23)NC(=O)[C@@H]2CCCCN2C(=O)[C@H](Cc2ccccc2)NC(=O)C2CO2)cc1` (stereo partly drawn) [Compound 13, (2S)—N—((S)-3-(1H-Indol-3-yl)-1-(((S)-1-((4-methylbenzyl)amino)-1-oxo-5-ureidopentan-2-yl)amino)-1-oxopropan-2-yl)-1-((oxirane-2-carbonyl)-L-phenylalanyl)piperidine-2-carboxamide] (X1-F[Pip]W[Cit]-{NH(4-Me-benzyl)}): 4.43 µM. Same read-out and setting: for `C=CS(=O)(=O)N[C@@H](Cc1ccccc1)C(=O)N1CCCC[C@H]1C(=O)N[C@@H](Cc1c[nH]c2ccccc12)C(=O)N[C@@H](CCCNC(N)=O)C(=O)NCc1ccc(C)cc1` [Compound 14, (S)—N—((S)-3-(1H-indol-3-yl)-1-(((S)-1-((4-methylbenzyl)amino)-1-oxo-5-ureidopentan-2-yl)amino)-1-oxopropan-2-yl)-1-((vinylsulfonyl)-L-phenylalanyl)piperidine-2-carboxamide] (X3-F[Pip]W[Cit]-{NH(4-Me-benzyl)}) the value was 0.143 µM.

Compound `Cc1ccc(CNC(=O)[C@H](CCCNC(N)=O)NC(=O)[C@H](Cc2c[nH]c3ccccc23)NC(=O)[C@@H]2CCCCN2C(=O)[C@H](Cc2ccccc2)NC(=O)CF)cc1` [Compound 15, (S)—N—((S)-3-(1H-Indol-3-yl)-1-(((S)-1-((4-methylbenzyl)amino)-1-oxo-5-ureidopentan-2-yl)amino)-1-oxopropan-2-yl)-1-((2-fluoroacetyl)-L-phenylalanyl)piperidine-2-carboxamide] (Fluoroacetyl-F[Pip]W[Cit]-{NH(4-Me-benzyl)}) had a Ki at Pin1 (GST-Pin1) (setting [2]) of over 10 µM.
